Among the data in US10626125B2, “1,1,1-trifluoro-3-hydroxypropan-2-yl carbamate derivatives as MAGL inhibitors” (PFIZER INC., priority 2017, dated 2020) are IC50 values, retold here.

pIC50: −log10 of the molar value. Like-named read-outs stand apart in the source and are kept apart here.

For this assay, the target named is T1, human recombinant Monoacylglycerol Lipase (Homo sapiens, UniProt Q99685).
T1 sequence (Q99685 1-303): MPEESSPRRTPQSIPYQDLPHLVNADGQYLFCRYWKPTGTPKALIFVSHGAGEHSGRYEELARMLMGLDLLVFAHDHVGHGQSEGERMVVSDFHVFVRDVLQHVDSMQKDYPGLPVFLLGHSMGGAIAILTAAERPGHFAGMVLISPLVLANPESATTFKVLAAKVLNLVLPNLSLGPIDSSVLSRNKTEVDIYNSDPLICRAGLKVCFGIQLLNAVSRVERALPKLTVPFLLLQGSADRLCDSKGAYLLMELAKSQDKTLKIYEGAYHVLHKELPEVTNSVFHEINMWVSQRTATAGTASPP
Description: MAGL enzymatic assay (IC50; 7-HCA substrate added at T=0 min or T=30 min). In kind it is biochemical.

Setting [1] is: read-out: MAGL (T=30 min) IC50, 30 minute incubation of compound with MAGL enzyme before addition of 7-HCA substrate.
Where [2] appears, read: MAGL (T = 30 min) IC50, substrate 7-HCA added after 30 minute incubation (T=30 min), geometric mean of 2-5 determinations unless otherwise indicated.
[3] abbreviates: substrate 7-HCA added immediately (T=0 min), geometric mean of 2-5 determinations unless otherwise indicated, read-out: MAGL (T = 0 min) IC50.
The mark [4] stands for this setting: MAGL (T=30 min) IC50, 30 minute incubation of compound with MAGL enzyme before addition of 7-HCA substrate.

One may read the pIC50 as −log10 of the IC50, conventionally taken in molar units. On to `O=C(O[C@H](CO)C(F)(F)F)N1CCC2(CC1)CC(c1ccc(C(F)F)cn1)CO2` (single isomer, unassigned) [diastereomer of Example 39], for which the pIC50 under setting [1] was 7.51.

For `O=C(O[C@H](CO)C(F)(F)F)N1CCC2(CC1)CC(Oc1ccc(C(F)F)nc1)C2` [Example 19, (2R)-1,1,1-Trifluoro-3-hydroxypropan-2-yl 2-{[6-(difluoromethyl)pyridin-3-yl]oxy}-7-azaspiro[3.5]nonane-7-carboxylate], the pIC50 is, setting by setting: under setting [2], 9.00; under setting [3], 8.10.

Turning to `O=C(OC(CO)C(F)(F)F)N1CCC2(CC1)CC(c1cc(C(F)F)ccn1)CO2` (single isomer, unassigned) [diastereomer of Example 35], the pIC50 under setting [1] is 7.72.

Turning to `N#Cc1ccc(C2COC3(CCN(C(=O)O[C@H](CO)C(F)(F)F)CC3)C2)c(F)c1` (single isomer, unassigned) [diastereomer of Example 72], under setting [4], the pIC50 was 7.92.

Take `N#Cc1cccc(C2CCOC3(CCN(C(=O)OC(CO)C(F)(F)F)CC3)C2)c1` (single isomer, unassigned) [diastereomer of Example 73]: the pIC50 under setting [1] is 7.13.

As to `Cc1cnn(C2COC3(CCN(C(=O)O[C@H](CO)C(F)(F)F)CC3)C2)c1` (single isomer, unassigned) [diastereomer of Example 24], the pIC50 under setting [1] was 7.22.

As for `O=C(OC(CO)C(F)(F)F)N1CCC2(CCC(n3cc(C(F)F)cn3)CO2)CC1` (single isomer, unassigned) [diastereomer of Example 75], under setting [1], the pIC50 is 8.52.

`O=C(OC(CO)C(F)(F)F)N1CCC2(CCC(c3ccc(F)cn3)CO2)CC1` (single isomer, unassigned) [diastereomer of Example 74]: the pIC50 under setting [1] was 7.82.

Regarding `N#Cc1ccc(C2COC3(CCN(C(=O)O[C@H](CO)C(F)(F)F)CC3)C2)cc1` (single isomer, unassigned) [diastereomer of Example 31], the pIC50 under setting [1] was 7.64.

As for `O=C(OC(CO)C(F)(F)F)N1CCC2(CCC(n3cc(C(F)(F)F)cn3)CO2)CC1` (single isomer, unassigned) [diastereomer of Example 69], the pIC50 under setting [1] is 8.52.

As to `O=C(O[C@H](CO)C(F)(F)F)N1CCC2(CC1)C[C@H](n1cc(F)cn1)CO2` [Example 10, (2R)-1,1,1-Trifluoro-3-hydroxypropan-2-yl (3S)-3-(4-fluoro-1H-pyrazol-1-yl)-1-oxa-8-azaspiro[4.5]decane-8-carboxylate], the pIC50 under setting [2] was 7.31 and the pIC50 under setting [3] is 6.25.

`O=C(OC(CO)C(F)(F)F)N1CCC2(CCC(n3cc(F)cn3)CO2)CC1` (single isomer, unassigned) [diastereomer of Example 70]: the pIC50 under setting [1] was 7.85.

`O=C(OC(CO)C(F)(F)F)N1CCC2(CC1)CC(n1ccc(C(F)(F)F)n1)CO2` (single isomer, unassigned) [diastereomer of Example 53]: the pIC50 under setting [1] is 8.05.

For `Cc1cn(C2COC3(CCN(C(=O)OC(CO)C(F)(F)F)CC3)C2)nc1C` (single isomer, unassigned) [diastereomer of Example 54], under setting [1], the pIC50 was 7.70.

In the case of `N#Cc1ccc([C@@H]2COC3(CCN(C(=O)O[C@H](CO)C(F)(F)F)CC3)C2)cc1F` [diastereomer of Example 27, (2R)-1,1,1-trifluoro-3-hydroxypropan-2-yl (3R)-3-(4-cyano-3-fluorophenyl)-1-oxa-8-azaspiro[4.5]decane-8-carboxylate], the pIC50 under setting [4] was 7.77.

Consider `N#Cc1cccc(C2COC3(CCN(C(=O)O[C@H](CO)C(F)(F)F)CC3)C2)c1F` (single isomer, unassigned) [diastereomer of Example 71], for which the pIC50 under setting [4] was 8.10.

`CC(C)(C)c1ccn(C2COC3(CCN(C(=O)OC(CO)C(F)(F)F)CC3)C2)n1` (single isomer, unassigned) [diastereomer of Example 52]: under setting [1], the pIC50 is 8.40.

`CN(C1CCOC2(CCN(C(=O)OC(CO)C(F)(F)F)CC2)C1)S(=O)(=O)CC1CC1` (single isomer, unassigned) [diastereomer of Example 50]: the pIC50 under setting [1] was 6.55.
